Test [1] concerns the target T1, NRH:quinone oxidoreductase 2 (NQO2, QR2) (Homo sapiens, UniProt P16083).
T1 sequence (P16083 1-231): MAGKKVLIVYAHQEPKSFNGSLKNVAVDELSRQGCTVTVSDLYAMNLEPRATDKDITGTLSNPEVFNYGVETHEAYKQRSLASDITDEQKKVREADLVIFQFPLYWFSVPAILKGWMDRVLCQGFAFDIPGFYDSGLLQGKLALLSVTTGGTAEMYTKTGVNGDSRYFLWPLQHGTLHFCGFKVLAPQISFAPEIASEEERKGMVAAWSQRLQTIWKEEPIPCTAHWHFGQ
As to the kind of experiment: co-crystal structure. Type of test: binding.

The target of another test is NQO1 (QR1) (Homo sapiens, UniProt P15559). As to the kind of experiment: recombinant human NQO1 activity after treatment with […] compound ± NADH. It is filed as biochemical.
NQO1 (QR1), sequence (P15559 whole entry): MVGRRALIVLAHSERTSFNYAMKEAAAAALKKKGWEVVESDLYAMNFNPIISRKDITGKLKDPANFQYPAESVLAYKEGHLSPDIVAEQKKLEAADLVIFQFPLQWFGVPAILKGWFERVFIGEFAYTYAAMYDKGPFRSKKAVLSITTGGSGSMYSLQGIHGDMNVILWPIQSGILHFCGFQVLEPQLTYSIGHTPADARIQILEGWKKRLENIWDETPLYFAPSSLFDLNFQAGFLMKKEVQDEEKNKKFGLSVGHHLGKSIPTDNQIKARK

This passage reports Kd and partition ratio results from paper PMC3880221 (Chembiochem : a European journal of chemical biology, 2011).

On to `Cc1c(COc2ccc([N+](=O)[O-])cc2)c2c(n1C)C(=O)C=C(NCCCCN)C2=O` [2c, 5-(4-Aminobutyl)amino-1,2-dimethyl-3-(4-nitrophenoxy)methylindole-4,7-dione], for which, in test [1], the Kd entry is reported as “Kd1 = 71; Kd2 = 19 μM”.
On to `COC1=CC(=O)c2c(c(COc3ccc([N+](=O)[O-])cc3)c(C)n2C)C1=O` [1a, 5-methoxy-1,2-dimethyl-3-(4-nitrophenoxymethyl)indole-4,7-dione], for which the partition ratio on NQO1 (QR1) is recorded as 3.5 (partition ratio).
